Measured values as given in patent publication US9321776B2, “Isochromene derivatives as phoshoinositide 3-kinases inhibitors” (CHIESI FARMACEUTICI S.p.A., priority 2013, dated 2016).
Counter-ions that a name gives are not always drawn.

Assays:
Assay in all cases: PI3K enzyme inhibitory activity in the cell free assay (ADP-Glo Kinase Assay)
Assay type in all cases: biochemical
PI3Kβ = biological target: T1, PI3Kβ (Homo sapiens, UniProt P42338); conditions: human recombinant PI3Kβ, ATP 100 μM; read-out: PI3K beta inhibition
T1 construct: purchased Millipore Ltd (Billerica, Mass.)
T1 sequence (P42338 whole entry): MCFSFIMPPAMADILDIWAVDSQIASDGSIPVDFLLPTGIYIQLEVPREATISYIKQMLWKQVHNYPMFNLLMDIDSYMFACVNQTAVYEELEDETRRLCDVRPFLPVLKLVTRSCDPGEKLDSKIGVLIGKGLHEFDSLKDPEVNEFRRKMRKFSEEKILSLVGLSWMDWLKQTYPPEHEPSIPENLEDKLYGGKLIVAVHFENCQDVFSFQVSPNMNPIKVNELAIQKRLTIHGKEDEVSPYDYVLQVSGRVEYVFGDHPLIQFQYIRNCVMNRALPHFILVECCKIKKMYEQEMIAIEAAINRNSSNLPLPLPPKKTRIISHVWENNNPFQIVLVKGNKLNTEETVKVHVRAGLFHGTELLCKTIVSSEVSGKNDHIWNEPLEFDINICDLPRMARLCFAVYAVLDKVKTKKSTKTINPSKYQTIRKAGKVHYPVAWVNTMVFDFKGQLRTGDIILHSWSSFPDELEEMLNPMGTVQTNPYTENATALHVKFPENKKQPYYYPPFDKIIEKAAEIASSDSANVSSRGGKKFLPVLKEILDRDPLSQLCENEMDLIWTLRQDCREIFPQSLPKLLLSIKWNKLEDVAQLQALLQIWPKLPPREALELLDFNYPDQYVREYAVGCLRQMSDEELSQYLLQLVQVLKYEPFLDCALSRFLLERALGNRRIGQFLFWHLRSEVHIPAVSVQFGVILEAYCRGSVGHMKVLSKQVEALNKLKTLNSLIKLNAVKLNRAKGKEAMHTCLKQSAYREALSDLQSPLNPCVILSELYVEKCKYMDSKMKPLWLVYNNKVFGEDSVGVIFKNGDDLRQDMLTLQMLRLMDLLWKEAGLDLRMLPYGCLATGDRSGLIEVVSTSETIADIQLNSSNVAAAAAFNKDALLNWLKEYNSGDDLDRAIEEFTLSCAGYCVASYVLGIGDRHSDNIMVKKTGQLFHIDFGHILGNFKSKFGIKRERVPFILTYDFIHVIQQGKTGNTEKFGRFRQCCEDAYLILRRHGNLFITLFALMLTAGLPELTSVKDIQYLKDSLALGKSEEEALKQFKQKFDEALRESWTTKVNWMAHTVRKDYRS

PI3Kδ = biological target: T2, PI3Kδ (Homo sapiens, UniProt O00329); conditions: human recombinant PI3Kδ, ATP 80 μM; read-out: PI3K delta inhibition
T2 construct: purchased Millipore Ltd (Billerica, Mass.)
T2 sequence (O00329 1-1044): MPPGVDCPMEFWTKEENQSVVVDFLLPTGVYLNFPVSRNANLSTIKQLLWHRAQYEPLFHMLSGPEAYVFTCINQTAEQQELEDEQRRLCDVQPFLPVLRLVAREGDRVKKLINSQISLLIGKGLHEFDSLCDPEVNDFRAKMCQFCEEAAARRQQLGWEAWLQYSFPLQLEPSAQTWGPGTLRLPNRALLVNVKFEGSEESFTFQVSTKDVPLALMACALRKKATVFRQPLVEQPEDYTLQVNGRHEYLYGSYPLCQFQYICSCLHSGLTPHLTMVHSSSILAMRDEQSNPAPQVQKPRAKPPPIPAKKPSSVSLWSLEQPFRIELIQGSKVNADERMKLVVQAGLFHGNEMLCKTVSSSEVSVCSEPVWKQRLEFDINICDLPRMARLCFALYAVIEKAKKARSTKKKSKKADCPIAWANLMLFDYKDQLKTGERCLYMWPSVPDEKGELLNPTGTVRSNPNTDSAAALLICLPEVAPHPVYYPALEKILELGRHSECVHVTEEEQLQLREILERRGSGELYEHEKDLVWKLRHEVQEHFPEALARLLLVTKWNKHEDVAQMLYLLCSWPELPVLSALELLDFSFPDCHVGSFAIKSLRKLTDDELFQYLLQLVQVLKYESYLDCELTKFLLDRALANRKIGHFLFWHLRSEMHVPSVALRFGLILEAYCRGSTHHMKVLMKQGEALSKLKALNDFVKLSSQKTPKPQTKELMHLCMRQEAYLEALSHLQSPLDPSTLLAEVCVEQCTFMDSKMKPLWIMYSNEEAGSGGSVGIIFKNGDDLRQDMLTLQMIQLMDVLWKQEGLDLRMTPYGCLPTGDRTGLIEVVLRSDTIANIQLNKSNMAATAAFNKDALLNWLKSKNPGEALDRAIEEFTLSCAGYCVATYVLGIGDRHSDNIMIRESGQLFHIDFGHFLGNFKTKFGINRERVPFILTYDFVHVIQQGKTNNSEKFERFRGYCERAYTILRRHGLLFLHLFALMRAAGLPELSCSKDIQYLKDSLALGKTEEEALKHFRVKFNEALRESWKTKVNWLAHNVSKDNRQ

PI3Kγ = biological target: T3, PI3Kγ (Homo sapiens, UniProt P48736); conditions: human recombinant PI3Kγ, ATP 30 μM; read-out: PI3K gamma inhibition
T3 construct: purchased Millipore Ltd (Billerica, Mass.)
T3 sequence (P48736 whole entry): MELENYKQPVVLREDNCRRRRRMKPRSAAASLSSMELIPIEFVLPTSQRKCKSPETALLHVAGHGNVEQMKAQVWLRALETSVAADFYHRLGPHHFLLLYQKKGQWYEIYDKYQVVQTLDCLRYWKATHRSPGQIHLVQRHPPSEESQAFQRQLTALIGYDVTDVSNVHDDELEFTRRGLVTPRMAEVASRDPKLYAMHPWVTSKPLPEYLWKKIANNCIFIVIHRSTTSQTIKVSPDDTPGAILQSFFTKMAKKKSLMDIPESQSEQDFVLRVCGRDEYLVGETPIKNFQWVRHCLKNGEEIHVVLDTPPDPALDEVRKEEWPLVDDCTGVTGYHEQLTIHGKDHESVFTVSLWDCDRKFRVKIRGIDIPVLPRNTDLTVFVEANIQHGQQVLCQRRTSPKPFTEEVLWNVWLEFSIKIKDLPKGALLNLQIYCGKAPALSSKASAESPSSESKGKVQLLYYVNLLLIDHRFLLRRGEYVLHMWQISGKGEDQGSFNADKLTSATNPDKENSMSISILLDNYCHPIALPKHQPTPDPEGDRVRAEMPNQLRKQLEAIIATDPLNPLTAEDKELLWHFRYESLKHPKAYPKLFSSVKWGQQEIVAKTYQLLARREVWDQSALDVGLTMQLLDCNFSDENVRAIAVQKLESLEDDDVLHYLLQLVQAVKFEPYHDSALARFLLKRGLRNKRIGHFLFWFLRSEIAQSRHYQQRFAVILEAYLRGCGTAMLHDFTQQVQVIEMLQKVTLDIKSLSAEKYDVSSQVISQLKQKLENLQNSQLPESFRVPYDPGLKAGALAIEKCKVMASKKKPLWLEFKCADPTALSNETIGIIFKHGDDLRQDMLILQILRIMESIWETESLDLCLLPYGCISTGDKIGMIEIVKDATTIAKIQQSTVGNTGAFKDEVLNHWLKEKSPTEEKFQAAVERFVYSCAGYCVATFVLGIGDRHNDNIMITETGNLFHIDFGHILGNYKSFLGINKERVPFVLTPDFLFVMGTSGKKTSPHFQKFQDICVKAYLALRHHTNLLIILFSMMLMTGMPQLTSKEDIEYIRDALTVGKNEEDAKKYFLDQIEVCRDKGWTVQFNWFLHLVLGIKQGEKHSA

| Molecule | IC50 (PI3Kβ) [nM] | IC50 (PI3Kδ) [nM] | IC50 (PI3Kγ) [nM] |
| --- | --- | --- | --- |
| 4-(1-acetyl-1,2,3,6-tetrahydropyridin-4-yl)-3-(1-(4-amino-3-(3-fluoro-5-hydroxyphenyl)-1H-pyrazolo[3,4-d]pyrimidin-1-yl)ethyl)-1H-isochromen-1-one single enantiomer [Example 166b] | 10 to 1000 |  |  |
| CC(c1oc(=O)c2ccccc2c1-c1cccc(CCCN(C)C)c1)n1nc(-c2cc(O)cc(F)c2)c2c(N)ncnc21 (single isomer, unassigned) [Example 137a, 3-(1-(4-amino-3-(3-fluoro-5-hydroxyphenyl)-1H-pyrazolo[3,4-d]pyrimidin-1-yl)ethyl)-4-(3-(3-(dimethylamino)propyl)phenyl)-1H-isochromen-1-one single enantiomers] | > 1000 | 10 to 1000 |  |
| O=c1oc(CNc2ncnc3[nH]cnc23)c(-c2cccc(F)c2)c2ccccc12 [Example 21, 3-((9H-Purin-6-ylamino)methyl)-4-(3-fluorophenyl)-1H-isochromen-1-one] |  | 10 to 1000 | 10 to 1000 |
| CC(Nc1ncnc2[nH]cnc12)c1oc(=O)c2ccccc2c1-c1ccc(OCCN2CCOCC2)cc1 (stereo not drawn) [Example 26, 3-(1-(9H-Purin-6-ylamino)ethyl)-4-(4-(2-morpholinoethoxy)phenyl)-1H-isochromen-1-one formate] |  | 10 to 1000 | 10 to 1000 |
| Cc1cccc(-c2c(CNc3ncnc4[nH]cnc34)oc(=O)c3ccccc23)c1 [Example 31, 3-((9H-Purin-6-ylamino)methyl)-4-m-tolyl-1H-isochromen-1-one] |  | 10 to 1000 | 10 to 1000 |
| CC(Nc1ncnc2[nH]cnc12)c1oc(=O)c2ccccc2c1-c1cccc(F)c1 (stereo not drawn) [Example 32, 3-(1-(9H-purin-6-ylamino)ethyl)-4-(3-fluorophenyl)-1H-isochromen-1-one] |  | < 10 | 10 to 1000 |
| Cc1cccc(-c2c(C(C)Nc3ncnc4[nH]cnc34)oc(=O)c3ccccc23)c1 (stereo not drawn) [Example 33, 3-(1-(9H-Purin-6-ylamino)ethyl)-4-m-tolyl-1H-isochromen-1-one] |  | < 10 | 10 to 1000 |
| Cc1n[nH]c2ccc(-c3nn(Cc4oc(=O)c5ccccc5c4-c4ccccc4)c4ncnc(N)c34)cc12 [Example 37, 3-((4-Amino-3-(3-methyl-1H-indazol-5-yl)-1H-pyrazolo[3,4-d]pyrimidin-1-yl)methyl)-4-phenyl-1H-isochromen-1-one] |  | 10 to 1000 | > 1000 |
| CC(Nc1ncnc2[nH]ncc12)c1oc(=O)c2ccccc2c1-c1ccccc1 (stereo not drawn) [Example 43, 3-(1-(1H-pyrazolo[3,4-d]pyrimidin-4-ylamino)ethyl)-4-phenyl-1H-isochromen-1-one] |  | 10 to 1000 | > 1000 |
| CC(c1oc(=O)c2ccccc2c1-c1ccc(CN2CCOCC2)cc1)n1nc(-c2cc(O)cc(F)c2)c2c(N)ncnc21 (stereo not drawn) [Example 48, 3-(1-(4-amino-3-(3-fluoro-5-hydroxyphenyl)-1H-pyrazolo[3,4-d]pyrimidin-1-yl)ethyl)-4-(4-(morpholinomethyl)phenyl)-1H-isochromen-1-one hydrochloride] |  | < 10 | 10 to 1000 |
| CC(c1oc(=O)c2ccccc2c1-c1ccccc1)n1nc(-c2ccnnc2)c2c(N)ncnc21 (stereo not drawn) [Example 53, 3-(1-(4-amino-3-(pyridazin-4-yl)-1H-pyrazolo[3,4-d]pyrimidin-1-yl)ethyl)-4-phenyl-1H-isochromen-1-one] |  | 10 to 1000 | > 1000 |
| CC(c1oc(=O)c2ccccc2c1-c1ccccc1)n1nc(-c2ccncc2)c2c(N)ncnc21 (stereo not drawn) [Example 54, 3-(1-(4-amino-3-(pyridin-4-yl)-1H-pyrazolo[3,4-d]pyrimidin-1-yl)ethyl)-4-phenyl-1H-isochromen-1-one] |  | 10 to 1000 | 10 to 1000 |
| COc1ncc(-c2nn(C(C)c3oc(=O)c4ccccc4c3-c3ccccc3)c3ncnc(N)c23)cn1 (stereo not drawn) [Example 55, 3-(1-(4-amino-3-(2-methoxypyrimidin-5-yl)-1H-pyrazolo[3,4-d]pyrimidin-1-yl)ethyl)-4-phenyl-1H-isochromen-1-one] |  | < 10 | 10 to 1000 |
| COc1cncc(-c2nn(C(C)c3oc(=O)c4ccccc4c3-c3ccccc3)c3ncnc(N)c23)c1 (stereo not drawn) [Example 57, 3-(1-(4-amino-3-(5-methoxypyridin-3-yl)-1H-pyrazolo[3,4-d]pyrimidin-1-yl)ethyl)-4-phenyl-1H-isochromen-1-one] |  | 10 to 1000 | 10 to 1000 |
| CC(Nc1ncnc2ccsc12)c1oc(=O)c2ccccc2c1-c1ccc(CN2CCOCC2)s1 (stereo not drawn) [Example 81, 4-(5-(morpholinomethyl)thiophen-2-yl)-3-(1-(thieno[3,2-d]pyrimidin-4-ylamino)ethyl)-1H-isochromen-1-one hydrochloride] |  | 10 to 1000 | > 1000 |
| CC(Nc1ncnn2cccc12)c1oc(=O)c2ccccc2c1-c1ccccc1 (stereo not drawn) [Example 83, 4-phenyl-3-(1-(pyrrolo[2,1-f][1,2,4]triazin-4-ylamino)ethyl)-1H-isochromen-1-one] |  | 10 to 1000 | > 1000 |
| CC(Nc1ncnc2cccnc12)c1oc(=O)c2ccccc2c1-c1ccccc1 (stereo not drawn) [Example 84, 4-phenyl-3-(1-(pyrido[3,2-d]pyrimidin-4-ylamino)ethyl)-1H-isochromen-1-one] |  | 10 to 1000 | 10 to 1000 |
| CC(c1oc(=O)c2ccccc2c1-c1ccccc1)n1nc(-c2cncc(CO)c2)c2c(N)ncnc21 (stereo not drawn) [Example 85, 3-(1-(4-amino-3-(5-(hydroxymethyl)pyridin-3-yl)-1H-pyrazolo[3,4-d]pyrimidin-1-yl)ethyl)-4-phenyl-1H-isochromen-1-one] |  | 10 to 1000 | 10 to 1000 |
| CC(c1oc(=O)c2ccccc2c1-c1ccccc1)n1nc(-c2ccc(CO)nc2)c2c(N)ncnc21 (stereo not drawn) [Example 86, 3-(1-(4-amino-3-(6-(hydroxymethyl)pyridin-3-yl)-1H-pyrazolo[3,4-d]pyrimidin-1-yl)ethyl)-4-phenyl-1H-isochromen-1-one] |  | < 10 | 10 to 1000 |
| CC(c1oc(=O)c2ccccc2c1-c1ccccc1)n1nc(-c2ccnc(N)n2)c2c(N)ncnc21 (stereo not drawn) [Example 89, 3-(1-(4-amino-3-(2-aminopyrimidin-4-yl)-1H-pyrazolo[3,4-d]pyrimidin-1-yl)ethyl)-4-phenyl-1H-isochromen-1-one hydrochloride] |  | > 1000 | 10 to 1000 |
| CC(C)Oc1ccc(-c2nn(C(C)c3oc(=O)c4ccccc4c3-c3ccccc3)c3ncnc(N)c23)cc1F (stereo not drawn) [Example 93, 3-(1-(4-amino-3-(3-fluoro-4-isopropoxyphenyl)-1H-pyrazolo[3,4-d]pyrimidin-1-yl)ethyl)-4-phenyl-1H-isochromen-1-one] |  | 10 to 1000 | 10 to 1000 |
| CC(c1oc(=O)c2ccccc2c1-c1ccccc1)n1nc(-c2cncc(F)c2)c2c(N)ncnc21 (stereo not drawn) [Example 94, 3-(1-(4-amino-3-(5-fluoropyridin-3-yl)-1H-pyrazolo[3,4-d]pyrimidin-1-yl)ethyl)-4-phenyl-1H-isochromen-1-one] |  | 10 to 1000 | 10 to 1000 |
| CC(c1oc(=O)c2ccccc2c1-c1ccccc1)n1nc(-c2ccc(S(C)(=O)=O)nc2)c2c(N)ncnc21 (stereo not drawn) [Example 97, 3-(1-(4-amino-3-(6-(methylsulfonyl)pyridin-3-yl)-1H-pyrazolo[3,4-d]pyrimidin-1-yl)ethyl)-4-phenyl-1H-isochromen-1-one] |  | < 10 | > 1000 |
| CC(Nc1ncnc2ccsc12)c1oc(=O)c2ccccc2c1-c1ccccc1 (stereo not drawn) [Example 109, 4-phenyl-3-(1-(thieno[3,2-d]pyrimidin-4-ylamino)ethyl)-1H-isochromen-1-one] |  | 10 to 1000 | 10 to 1000 |
| CC(Nc1ncnc2[nH]cnc12)c1oc(=O)c2ccccc2c1-c1ccc(CN2CCNCC2)cc1 (stereo not drawn) [Example 126, 3-(1-(9H-purin-6-ylamino)ethyl)-4-(4-(piperazin-1-ylmethyl)phenyl)-1H-isochromen-1-one dihydrochloride] |  | 10 to 1000 | 10 to 1000 |
| CC(c1oc(=O)c2cc(Cl)ccc2c1-c1ccccc1)n1nc(-c2cc(O)cc(F)c2)c2c(N)ncnc21 (stereo not drawn) [Example 163, 3-(1-(4-amino-3-(3-fluoro-5-hydroxyphenyl)-1H-pyrazolo[3,4-d]pyrimidin-1-yl)ethyl)-7-chloro-4-phenyl-1H-isochromen-1-one] |  | 10 to 1000 | > 1000 |
